Test [1] deals with Estramustine-resistant DU145. The test is described as follows: Growth inhibition IC50, Estramustine-resistant line. The settings on record: Homo sapiens, DU-145. It is filed as cell-based. The protocol:
(§1) PrC cell lines resistant to Estramustine (ESM) were developed as the clinical use of this drug induces significant side effects and drug resistance. The procedure of Mohr was used as described in the Supplementary Information.
(§2) Supplementary Information
(§3) Development of drug resistant cell lines
(§4) Cells were seeded in 3 flasks. […]
(§5) parent cell line was calculated. […]
(§6) to the drug within 2–4 weeks.
(§7) Table S1: IC50 values for parent and Estramustine-resistant prostate cancer cell lines are also multidrug re-sistant to Camptothecin and Docetaxel. Drugs
(§8) Estramustine Camptothecin Docetaxel […]

Test [2] deals with Estramustine-resistant PC3. The test is described as above. The class given is cell-based. The conditions noted are these: Homo sapiens. How it is done: as §1, §2, §3, §4, §5, §6, §7, §8
Test [3] concerns Estramustine-resistant 22RV1. Described as above. It is filed as cell-based. The conditions noted are these: Homo sapiens; 22RV1 Estramustine-resistant line. The protocol: as §1, §2, §3, §4, §5, §6, §7, §8
The test system of a further test is DU145. The test is described as follows: Growth inhibition IC50, parent line. The class given is cell-based. The settings on record: Homo sapiens, DU-145. The protocol:
as §1, §2, §3, §4, §5, §6, §7, §8

In the next test the test system is PC3. The test is described as follows: Growth inhibition IC50, parent line. The class given is cell-based. The settings on record: Homo sapiens, PC-3. The protocol:
as §1, §2, §3, §4, §5, §6, §7, §8

Another test deals with 22RV1. The test is described as follows: Growth inhibition IC50, parent line. The class given is cell-based. The conditions noted are these: Homo sapiens; 22RV1 parent line. The protocol: as §1, §2, §3, §4, §5, §6, §7, §8
A further test deals with PrC cell lines. The test is described as follows: Dose-response of PrC cell lines to ESM. It is filed as cell-based. The settings on record: Homo sapiens; range over the PrC cell lines, Figure S2; read-out: IC50s for ESM. The protocol:
as §1
ESM-resistant lines developed following more than 6 months of exposure to the drug.
as §2, §3
Cells were seeded in 3 flasks.
parent cell line was calculated.
as §6

The test system of the next test is PC3 tumors. The test is described as follows: Xenograft anti-tumor efficacy. The class given is in vivo, athymic nu/nu mice. The conditions noted are these: 5 mg/kg, tail vein, twice weekly for four weeks, n = 5. The protocol: As described above, a xenograft tumor model was established by injecting mice with PC3 cells. Tumor growth was monitored regularly, and mice were randomized into one of four groups (n = 5 per group) when their tumor volume reached approximately 140 mm^3 (approx. day 16 post-injection) so as to ensure the equal distribution of tumor burden among the groups. The mice were treated twice weekly for four weeks via tail vein injection as follows. Group 1 (Control) received vehicle only; Group 2 (free SN-38) received SN38 at a dose of 5 mg/kg; Group 3 (PDC 10 mg/kg) received PrC10-SN38 at a dose of 10 mg/kg; Group 4 (PDC 20 mg/kg) received PrC10-SN38 at a dose of 20 mg/kg. Tumor volume was measured regularly until day 44 from the initiation of treatment, after which all mice were euthanized via CO2 inhalation.

Structures are written as SMILES. pIC50: −log10 of the molar value.

On to `CC[C@@]1(O)C(=O)OCc2c1cc1n(c2=O)Cc2cc3ccccc3nc2-1` [Camptothecin], for which the pIC50 in test [1] was 7.00; in test [2] it was 6.70; in test [3], 7.64; with DU145 it was 8.00; in the test with PC3, 7.35; in the test on 22RV1, 8.15.
Regarding `CC(=O)O[C@@]12CO[C@@H]1C[C@H](O)[C@@]1(C)C(=O)[C@H](O)C3=C(C)[C@@H](OC(=O)[C@H](O)[C@@H](NC(=O)OC(C)(C)C)c4ccccc4)C[C@@](O)([C@@H](OC(=O)c4ccccc4)[C@H]21)C3(C)C` [Docetaxel], the pIC50 in test [1] was 8.30; in test [2], 8.00; in test [3], 8.40; with DU145, 8.52; with PC3, 8.40; with 22RV1, 8.52.
Turning to `C[C@]12CC[C@@H]3c4ccc(OC(=O)N(CCCl)CCCl)cc4CC[C@H]3[C@@H]1CC[C@@H]2O` [Estramustine], the pIC50 in the test on PrC cell lines was 5.76 to 5.85; in test [1], 5.10; in test [2], 4.62; in test [3], 4.52; with DU145, 5.10; with PC3 it was 5.00. For the same molecule, the pIC50 in the test on 22RV1 is 5.10.
As to `CCc1c2c(nc3ccc(O)cc13)-c1cc3c(c(=O)n1C2)COC(=O)[C@]3(O)CC` [free SN-38, SN-38], the tumor growth entry in the test on PC3 tumors is “did not inhibit tumor growth”.

Values taken from paper PMC12298539, “Applying Unbiased, Functional Criteria Allows Selection of Novel Cyclic Peptides for Effective Targeted Drug Delivery to Malignant Prostate Cancer Cells” (Pharmaceutics, 2025).
